In patent US8329195B2, “Detoxified pneumococcal neuraminidase and uses thereof” (priority 2007, dated 2012):

Key:
PAF-R = PAF-R (Homo sapiens, UniProt P25105); conditions: cited from earlier work
TIGR4 strain = assay: Attachment of TIGR4 strain to ganglioside-coated ELISA plates; type: binding, Streptococcus pneumoniae; conditions: short-term incubation with the TIGR4 strain
Procedure: The ability of the TIGR4, and its nanA and nanB mutants to bind to specific gangliosides is measured. The gangliosides used include mixed gangliosides, asialo-GM1, GM1, GD1a, GD1b, GT1 (Calbiochem) and the GM3 ganglioside (Sigma) The GM3 ganglioside lacks the terminal or internal GalNAcβ1-4Gal sequence involved in pneumococcal binding and is used as a negative control. These mixed, mono-, di- or tri-sialic acid containing gangliosides bind readily to ELISA plates. […] Using ganglioside-coated plates, the ability to attach to these plates by wildtype TIGR4 strain, the stable opaque and transparent phase variants of the TIGR4 strain, the nanA, nanB, and nanA/nanB mutant strains is compared. These analyses include short-term incubation (1 hr) and extended incubations (24 hrs) on ganglioside-coated plates, Attached pneumococci are removed from the ganglioside plates by short incubation (10-15 min.) in Todd Hewitt medium containing 0.5% yeast extract followed by repeated pipetting and plating the released bacteria on blood agar plates. Alternatively 41° C. Todd Hewitt broth agar containing 0.5% yeast extract is poured on top of the attached pneumococci and the colonies are counted through the bottom of the plate. Controls include plates with no pneumococci and plates with no gangliosides but with pneumococci.

[1] = Matsubura et al. 1999; cited from earlier work
[2] = tested on: S. pneumoniae strain EF3030; assay: GLS preincubation of S. pneumoniae strain EF3030 before nasal application to xid mice, CFU in tissues; type: in vivo, Streptococcus pneumoniae; conditions: four days after nasal application
Procedure: Aliquots (3×10^7 CFUs) of S. pneumoniae were incubated for 30 minutes with 20 μg asialo-GM1 (a-GM1) or 125 μg of mixed GLSs (MG) prior to nasal application. The ON/E, OBs, brain and NW, NALT and lungs were collected four days later and analyzed for numbers of S. pneumoniae. The 0 value on the Y-axis represents the absence of detectable CFUs. Indicated are the mean+one SE of 5 mice and the P-values were obtained following statistical analysis with the Student's t-test or the Mann-Whitney two sample rank test, as appropriate for the data examined. The data are representative of two separate experiments.
Eight serial, three-fold dilutions were made of tissues and body fluids in sterile Ringer's solution and plated on blood agar plates containing […] gentamicin sulfate. The CFU were enumerated 24 hr after plating and incubation in a candle jar. The results were expressed as CFUs/organ, per NW or per ml of blood.
To block GLS binding sites, 3×10^7 CFU of S. pneumoniae strain EF3030 were incubated for 30 min on ice with either 20 μg asialo-GM1 from human brain or 125 μg of mixed GLSs (18% GM1, 55% GD1a, 15% GD1b, 10% GT1b, 2% other GLSs) from bovine brain (Calbiochem-Novabiochem Corporation, Inc., La Jolla, Calif.). GLSs were dissolved in PBS and extensively mixed a day prior to use. […] Tissues were analyzed for CPUs four days later.

Chain of PAF-R (P25105 whole entry, species assumed): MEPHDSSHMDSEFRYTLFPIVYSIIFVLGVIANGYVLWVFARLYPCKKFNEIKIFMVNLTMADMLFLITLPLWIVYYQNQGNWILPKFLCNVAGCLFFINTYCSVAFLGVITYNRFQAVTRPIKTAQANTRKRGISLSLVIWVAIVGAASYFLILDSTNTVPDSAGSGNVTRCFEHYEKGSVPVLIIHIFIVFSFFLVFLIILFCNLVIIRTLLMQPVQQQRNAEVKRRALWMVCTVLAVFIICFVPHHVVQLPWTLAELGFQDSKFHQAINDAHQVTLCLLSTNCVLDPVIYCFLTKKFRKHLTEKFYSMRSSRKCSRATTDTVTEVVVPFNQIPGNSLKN

CCCCCCCCOc1ccccc1C(=O)Nc1ccc(C(=O)OCC[N+](C)(CC)CC)cc1 [octylonium bromide]
binding to the PAF-R (PAF-R): binds with high affinity

GM1
binding of pneumococci to coated plates (TIGR4 strain): not

GM3 [GM-3]
binding of pneumococci to coated plates (TIGR4 strain): not

VWRLLAPPFSNRLLP [GM1-binding peptide]
IC50 [1]: 1000 nM | affinity for GM1 [1]: 10^10 M^−1

asialo-GM1
reduced colonization in CNS ([2]; CNS): 25 fold | reduced colonization in lungs ([2]; lungs): 63 fold | binding of pneumococci to coated plates (TIGR4 strain): bind and attachment
